Drawing on PubChem BioAssay (NCI), this text covers TGI and GI50 for 16 compounds.

Among the test systems are HOP-62 NSCLC; HT29 colon; LOX IMVI melanoma; OVCAR-5 ovarian; SNB-19 CNS; SR leukemia; A498 renal; MCF7 breast; MDA-MB-435; NCI/ADR-RES ovarian.
Common to all, as to assay: DTP human tumour cell line panel, 48 h

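Test compounds were applied to cells in 96-well plates for 48 hours at 5 doses. GI50: concentration for 50% inhibition of growth. TGI: total growth inhibition.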 Where only a bound is given, the exact number is not on record here.

The term TGI denotes the concentration at which net growth stops. A lower TGI goes with greater sensitivity of the cells. As for `CCOC(=O)C1C(=O)c2cccc(OC)c2C2COC(=O)N12` (stereo not given), the TGI in the test with HOP-62 NSCLC, in the test with HT29 colon, in the test with LOX IMVI melanoma, in the test on OVCAR-5 ovarian, with SNB-19 CNS and in the test on SR leukemia was more than 100 µM throughout.
In the case of `C#Cc1ccccc1N1C(=O)C=CC1=O`, the TGI in the test with A498 renal, in the test with HOP-62 NSCLC, in the test on HT29 colon, with OVCAR-5 ovarian, in the test with SNB-19 CNS and with SR leukemia was more than 100 µM each time.
For `CC(=O)N1CCN(C=S)CC1`, the TGI with A498 renal, in the test on HOP-62 NSCLC, in the test with HT29 colon, with LOX IMVI melanoma, with OVCAR-5 ovarian and in the test with SNB-19 CNS was more than 100 µM throughout. Further, the TGI in the test on SR leukemia is more than 100 µM.
With `COc1c(OC2OC(CO)C(O)C(O)C2O)cc2c(c1OC)-c1ccc(OC)c(=O)cc1[C@@H](NC(C)=O)CC2` (stereo not given in full), the total growth inhibition concentration (TGI) in the test with A498 renal, in the test on HOP-62 NSCLC, in the test with HT29 colon, with LOX IMVI melanoma, in the test on OVCAR-5 ovarian and with SNB-19 CNS was more than 100 µM each time. In addition, the TGI in the test with SR leukemia is more than 100 µM.
In the case of `C(=NCCN=Cc1cccc2ccccc12)c1cccc2ccccc12`, the total growth inhibition concentration (TGI) with HT29 colon, with OVCAR-5 ovarian, in the test on SNB-19 CNS and in the test on SR leukemia was more than 100 µM in each case.
Take `O=C1OC(=O)C2C1C1C(c3ccccc3)=C(c3ccccc3)C2(O)C2C(=O)OC(=O)C12` (stereo not given): the TGI with A498 renal, in the test on HOP-62 NSCLC, in the test with HT29 colon, with OVCAR-5 ovarian, with SNB-19 CNS and with SR leukemia was more than 100 µM throughout.
With `N#CC12CC3(CCC1CCC1(C2)OCCO1)OCCO3` (stereo not given), the TGI in the test on A498 renal, with HOP-62 NSCLC, with LOX IMVI melanoma, in the test on OVCAR-5 ovarian, with SNB-19 CNS and in the test on SR leukemia was more than 100 µM in each case.
As usually defined, the GI50 is the concentration that inhibits growth by half. For the compound `COc1ccc2c(c1)NC(=O)CN2c1nc(C)nc2ccccc12`, the concentration for 50% growth inhibition (GI50) was 0.000376 µM in the test with A498 renal; 0.00069 µM in the test with HOP-62 NSCLC; 0.000307 µM in the test with HT29 colon; 0.000526 µM in the test on LOX IMVI melanoma; 0.000363 µM with MCF7 breast; 0.000208 µM in the test with MDA-MB-435. Moreover, in the test on SNB-19 CNS, the GI50 was 0.000655 µM. The TGI was more than 100 µM with HOP-62 NSCLC; more than 100 µM in the test on LOX IMVI melanoma; more than 100 µM in the test with MCF7 breast; 0.000484 µM in the test with MDA-MB-435; more than 100 µM in the test on OVCAR-5 ovarian; more than 100 µM with SNB-19 CNS. The concentration for total growth inhibition (TGI) in the test on SR leukemia was more than 100 µM.
Regarding `CCCCCC/C(CC(=O)CCC(=O)NCCc1ccccc1)=N\NC(=O)c1ccc2ccccc2c1O`, the total growth inhibition concentration (TGI) with HOP-62 NSCLC was more than 100 µM; in the test on HT29 colon, more than 100 µM; in the test on LOX IMVI melanoma, 48.5 µM; in the test with OVCAR-5 ovarian, 54.2 µM; with SNB-19 CNS, more than 100 µM.
Regarding `CCc1cccc(CC)c1NC(=O)C1=CNC(C)=C(C(=O)Nc2c(CC)cccc2CC)C1c1ccc(O)c(OC)c1` (stereo not given), the TGI with A498 renal is 76.4 µM; with HOP-62 NSCLC, 86.8 µM; with HT29 colon, 80.2 µM; with LOX IMVI melanoma it was more than 100 µM; in the test with OVCAR-5 ovarian, more than 100 µM; in the test with SNB-19 CNS, more than 100 µM.
Consider `O=C(OCc1ccccc1)c1ccccc1-c1c2ccc(=O)cc-2oc2cc(OCc3ccccc3)ccc12`, for which the TGI in the test with A498 renal was 88.2 µM; with HT29 colon it was 55.5 µM; in the test with LOX IMVI melanoma, 21.2 µM; with OVCAR-5 ovarian, more than 100 µM; with SNB-19 CNS, more than 100 µM; in the test on SR leukemia, 18.8 µM.
Take `OCC(O)C(OC1OC(CO)C(O)C(O)C1O)c1nn(-c2ccc(Cl)cc2)c2nc3cc(Cl)ccc3nc12` (stereo not given): the TGI in the test on A498 renal, in the test on HOP-62 NSCLC, with HT29 colon, in the test with LOX IMVI melanoma, in the test on OVCAR-5 ovarian and in the test on SNB-19 CNS was more than 100 µM in each case. In the test with SR leukemia, this compound displayed a total growth inhibition concentration (TGI) of more than 100 µM.
In the case of `ClCCCN1CCCCC1CCl` (stereo not given), the TGI with A498 renal, with HOP-62 NSCLC, in the test with HT29 colon, in the test on LOX IMVI melanoma, in the test on OVCAR-5 ovarian and in the test on SNB-19 CNS was more than 100 µM throughout. In the test on SR leukemia, the TGI was more than 100 µM.
Regarding `COc1ccc(CNC(=O)c2c(C)n([O-])c3cc(F)c(F)cc3[n+]2=O)cc1`, the GI50 is 16.1 µM with A498 renal; 18.2 µM in the test with HOP-62 NSCLC; 3.91 µM in the test with HT29 colon; 5.22 µM with LOX IMVI melanoma; 5.72 µM with MCF7 breast; 17 µM with NCI/ADR-RES ovarian. Moreover, the GI50 with OVCAR-5 ovarian was 16 µM; in the test on SNB-19 CNS, 13.1 µM. In addition, the total growth inhibition concentration (TGI) in the test on A498 renal was 29.6 µM; in the test on HOP-62 NSCLC it was 32.7 µM; in the test on HT29 colon, 16 µM; in the test with LOX IMVI melanoma it was 17.5 µM; with MCF7 breast it was 19.3 µM; in the test on NCI/ADR-RES ovarian, 31.6 µM. Besides, the TGI with OVCAR-5 ovarian is 29.4 µM; in the test on SNB-19 CNS it was 25.8 µM.
For the compound `CC1SC(c2cccc(Cl)c2)N(NC(=O)C(O)c2ccccc2)C1=O` (stereo not given), the GI50 in the test on A498 renal, in the test with HOP-62 NSCLC, in the test on HT29 colon, with LOX IMVI melanoma, with MCF7 breast and in the test with MDA-MB-435 was more than 100 µM each time. The GI50 with OVCAR-5 ovarian and with SNB-19 CNS was more than 100 µM each time. Moreover, the concentration for total growth inhibition (TGI) with A498 renal, with HOP-62 NSCLC, in the test with HT29 colon, in the test on LOX IMVI melanoma, in the test with MCF7 breast and in the test with MDA-MB-435 was more than 100 µM throughout. Besides, the total growth inhibition concentration (TGI) in the test on OVCAR-5 ovarian and in the test with SNB-19 CNS was more than 100 µM each time.
In the case of `CC(=O)CC(=O)ON(C)C(=O)Cc1ccccc1`, the TGI in the test with HOP-62 NSCLC, with HT29 colon, in the test on LOX IMVI melanoma, with OVCAR-5 ovarian, in the test on SNB-19 CNS and with SR leukemia was more than 100 µM throughout.
